Test results published in PMC9061857, “A fluorogenic probe for granzyme B enables in-biopsy evaluation and screening of response to anticancer immunotherapies” (Nature Communications, 2022).
Where no end group is shown, it is not given here.

Tests used:
human GzmB (hGzmB) [1] = molecular target: T1, human GzmB (hGzmB) (Homo sapiens, UniProt P10144); experiment: Fluorescence assay with recombinant hGzmB (fluorogenic response, time course); assay type: biochemical; settings: for t50: probe 25 μM, hGzmB 20 nM
T1 construct: For active GzmB vs pro-GzmB, p < 0.0001
Experimental: Fluorescence-based assays with different enzymes were performed in the appropriate buffers. Probes (25 μM) were added to enzymes (20 nM or at the indicated concentrations) in 384-well plates and their fluorescence emission was recorded at 450 nm (for AMC) or 510 nm (for BODIPY) at 37 °C using a Synergy H1 Hybrid spectrophotometer. In experiments with Ac-IEPD-CHO (50 μM), the inhibitor was preincubated for 1 h with GzmB before the addition of any probe.

human GzmB (hGzmB) [2] = molecular target: T1, human GzmB (hGzmB); experiment: HPLC conversion of fluorogenic peptides by hGzmB; assay type: biochemical
Experimental: (§1) Supplementary Figure 1. Reactivity of fluorogenic substrates against human GzmB and limits of detection. a) Reaction conversion rates (by HPLC-UV detection at 350 nm) for Ac-IEPD-AMC (50 μM) in TRIS buffer (see Methods) at 37 °C containing different concentrations of hGzmB. Data presented as mean values±SEM (n=3 independent biological experiments). b) Reaction conversion rates (by HPLC-UV detection at 500 nm) for the tetrapeptide T1 (25 μM) in TRIS buffer at 37 °C containing different concentrations of hGzmB. Data presented as mean values±SEM (3 independent biological experiments).
(§2) Source data provided as a Source Data file.
(§3) (1 picture or pasted object on this page, not shown here)
Supplementary Table 1. Chemical structures and reactivity of FRET-based tetrapeptides against human GzmB.
Code Structure Linker Quencher HPLC conversion HPLC conversion […]
Supplementary Table 2. Sequences and reactivity of FRET-based hexapeptides against […]
Code Peptide sequence HPLC conversion
H1 Ile-Glu-Pro-Asp-Ala-Gly 75%
H2 Ile-Glu-Pro-Asp-Ser-Gly 80%
H3 Ile-Glu-Pro-Asp-Ser-Leu 80%
H4 Ile-Glu-Pro-Asp-Trp-Leu 82%
H6 Ile-Glu-Pro-Asp-Trp-Arg 40%
H7 Ile-Glu-Pro-Asp-Arg-Leu 60%
H5m Ile-Glu-Phe-Asp-Ala-Leu 70%

hGzmB = experiment: Limit of detection of hGzmB by probe fluorescence; assay type: biochemical, human; settings: H5 25 μM, 37 °C, emission 530 nm, no washing steps (Fig. S4)
Experimental: as §1, §2, §3
Supplementary Figure 4. Comparative enzyme selectivity and limit of detection for […]
Ac-IEPD-AMC (all at 25 μM) after incubation for 90 min at 37 °C with hGzmB (light gray bars), human caspase-3 (dark gray bars) and hGzmA (white bars) (all enzymes used at 20 nM). Data presented as mean values±SEM (n=3). Excitation wavelengths: 450 nm (for […]
450 nm (for Ac-IEPD-AMC). b) Limit of detection of hGzmB by fluorescence emission […]
presented as mean values±SD (2 independent experiments with 3 technical replicates).

recombinant mouse GzmB = experiment: Reactivity against recombinant mouse GzmB (fluorescence); assay type: biochemical; settings: 25 μM, 90 min, 37 °C
Experimental: and H5m (both at 25 μM) after incubation for 90 min at 37 °C with recombinant mouse
pro-GzmB (100 nM) after pre-activation with mouse cathepsin C (5.5 μg mL-1) for 4 h.
Excitation/emission wavelengths: 450 nm /510 nm. Data presented as mean values±SEM
(3 independent experiments with 3 technical replicates). Source data provided as a […]

[3] = system: EpCAM+ epithelial cells from lung cancer patients; experiment: Flow cytometry of paired tumor and non-tumor lung tissue; assay type: cell-based, human; settings: H5 5 μM, 30 min r.t.
Experimental: Tissue samples of tumor and paired non-tumor (n = 5 for both conditions) lungs were taken from treatment-naïve patients undergoing surgical resection. Participants provided written informed consent and the study was approved by NHS Lothian REC and facilitated by NHS Lothian SAHSC Bioresource (REC No: 15/ES/0094). Fresh samples were minced, incubated with 1 mg mL^−1 collagenase IV, 1 mg mL^−1 DNase 1, 50 U mL^−1 hyaluronidase in DMEM for 1 h at 37 °C with agitation, and passed through 100 and 70 µm filters followed by red cell lysis. […] Cells were washed twice in PBS 2% fetal calf serum (FCS) prior to collection. For microscopy, formalin-fixed paraffin-embedded slides of non-small cell lung cancer and paired non-cancerous lung were deparaffinized, rehydrated, stained with hematoxylin and eosin, followed by dehydration and imaging on a Zeiss AxioScan microscope.
Supplementary Figure 17. Gating strategy for assessing the probe H5 in human lung tissue. All cells were gated to exclude debris and gated on singlets. Leukocytes were excluded on the basis of CD45 positivity, and live EpCAM positive cells were selected by excluding cells stained positive with the Zombie UV viability dye (1:1000 dilution). Probe H5 positivity in the live EpCAM+ population in non-tumor and tumor tissues was assessed against cells stained in the absence of prob e H5 giving a background of <1% positivity.
as §3

mKate-E0771 cells = experiment: MTT cell viability assay; assay type: cell-based, mouse; settings: 1 h; for Cell viability (MTT), normalized to untreated cells: 37 °C
Experimental: Supplementary Figure 9. Cell viability assays in mKate-E0771 cancer cells. mKate-E0771 cells were plated in 96-well plates (50,000 cells well-1) and incubated at the […]
Cell viability was determined using a commercially available MTT kit (Invitrogen) with values normalized to untreated cells.
Data presented as mean values±SEM (2 independent experiments with 3 replicates for each). P values were obtained from ONE-ANOVA tests with multiple comparisons.
as §2, §3

T1 sequence (P10144 21-247): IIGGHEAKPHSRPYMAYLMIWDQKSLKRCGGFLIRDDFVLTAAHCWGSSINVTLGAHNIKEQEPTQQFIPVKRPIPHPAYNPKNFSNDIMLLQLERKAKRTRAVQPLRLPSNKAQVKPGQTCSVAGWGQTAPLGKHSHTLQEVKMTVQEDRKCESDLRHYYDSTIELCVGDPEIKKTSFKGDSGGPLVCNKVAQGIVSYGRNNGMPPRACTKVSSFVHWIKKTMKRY

**Q.** Which results are given for “IEPDAL [H5, FRET hexapeptide IEPDAL with BODIPY-FL fluorophore at the N-terminal end and Dabcyl quencher]”?
**A.** specificity for hGzmB over other enzymes (human GzmB (hGzmB) [1]; caspases, granzymes, MMPs, neutrophil elastase, pro-hGzmB): minimal response to other enzymes; t50 (human GzmB (hGzmB) [1]; Data 1): 7 min; t50 (human GzmB (hGzmB) [1]; Data 2): 7 min; t50 (human GzmB (hGzmB) [1]; Data 3): 7 min; time to complete cleavage (human GzmB (hGzmB) [2]; 20 nM hGzmB): less than 30 min; HPLC conversion (20 nM hGzmB, 2 h) (human GzmB (hGzmB) [2]; probe 25 μM (Ac-IEPD-AMC 50 μM), TRIS buffer, 37 °C, HPLC-UV): 100%; LoD (hGzmB): 6 pM; response to mouse GzmB (recombinant mouse GzmB): good response; percentage of EpCAM+ H5+ epithelial cells ([3]; Healthy (non-tumor) tissue, Data 1): 10.4%; percentage of EpCAM+ H5+ epithelial cells ([3]; Healthy (non-tumor) tissue, Data 2): 9.7%; percentage of EpCAM+ H5+ epithelial cells ([3]; Healthy (non-tumor) tissue, Data 3): 11.0%; percentage of EpCAM+ H5+ epithelial cells ([3]; Healthy (non-tumor) tissue, Data 4): 6.6%; percentage of EpCAM+ H5+ epithelial cells ([3]; Healthy (non-tumor) tissue, Data 5): 10.4%; percentage of EpCAM+ H5+ epithelial cells ([3]; Tumor tissue, Data 1): 19.4%; percentage of EpCAM+ H5+ epithelial cells ([3]; Tumor tissue, Data 2): 19.1%; percentage of EpCAM+ H5+ epithelial cells ([3]; Tumor tissue, Data 3): 21.3%; percentage of EpCAM+ H5+ epithelial cells ([3]; Tumor tissue, Data 4): 18.6%; percentage of EpCAM+ H5+ epithelial cells ([3]; Tumor tissue, Data 5): 36.0%; Cell viability (MTT), normalized to untreated cells (mKate-E0771 cells; H5 3.1 (head prints mM), Data 1): 107%; Cell viability (MTT), normalized to untreated cells (mKate-E0771 cells; H5 3.1 (head prints mM), Data 2): 102%; Cell viability (MTT), normalized to untreated cells (mKate-E0771 cells; H5 3.1 (head prints mM), Data 3): 89%; Cell viability (MTT), normalized to untreated cells (mKate-E0771 cells; H5 3.1 (head prints mM), Data 4): 85%; Cell viability (MTT), normalized to untreated cells (mKate-E0771 cells; H5 3.1 (head prints mM), Data 5): 94%; Cell viability (MTT), normalized to untreated cells (mKate-E0771 cells; H5 3.1 (head prints mM), Data 6): 89%; Cell viability (MTT), normalized to untreated cells (mKate-E0771 cells; H5 6.3 (head prints mM), Data 1): 99%; Cell viability (MTT), normalized to untreated cells (mKate-E0771 cells; H5 6.3 (head prints mM), Data 2): 93%; Cell viability (MTT), normalized to untreated cells (mKate-E0771 cells; H5 6.3 (head prints mM), Data 3): 97%; Cell viability (MTT), normalized to untreated cells (mKate-E0771 cells; H5 6.3 (head prints mM), Data 4): 95%; Cell viability (MTT), normalized to untreated cells (mKate-E0771 cells; H5 6.3 (head prints mM), Data 5): 89%; Cell viability (MTT), normalized to untreated cells (mKate-E0771 cells; H5 6.3 (head prints mM), Data 6): 90%; Cell viability (MTT), normalized to untreated cells (mKate-E0771 cells; H5 12.5 (head prints mM), Data 1): 107%; Cell viability (MTT), normalized to untreated cells (mKate-E0771 cells; H5 12.5 (head prints mM), Data 2): 106%; Cell viability (MTT), normalized to untreated cells (mKate-E0771 cells; H5 12.5 (head prints mM), Data 3): 99%; Cell viability (MTT), normalized to untreated cells (mKate-E0771 cells; H5 12.5 (head prints mM), Data 4): 96%; Cell viability (MTT), normalized to untreated cells (mKate-E0771 cells; H5 12.5 (head prints mM), Data 5): 84%; Cell viability (MTT), normalized to untreated cells (mKate-E0771 cells; H5 12.5 (head prints mM), Data 6): 88%; Cell viability (MTT), normalized to untreated cells (mKate-E0771 cells; H5 25 (head prints mM), Data 1): 107%; Cell viability (MTT), normalized to untreated cells (mKate-E0771 cells; H5 25 (head prints mM), Data 2): 102%; Cell viability (MTT), normalized to untreated cells (mKate-E0771 cells; H5 25 (head prints mM), Data 3): 99%; Cell viability (MTT), normalized to untreated cells (mKate-E0771 cells; H5 25 (head prints mM), Data 4): 76%; Cell viability (MTT), normalized to untreated cells (mKate-E0771 cells; H5 25 (head prints mM), Data 5): 81%; Cell viability (MTT), normalized to untreated cells (mKate-E0771 cells; H5 25 (head prints mM), Data 6): 81%; cytotoxicity (mKate-E0771 cells; MTT, 37 °C (Fig. S9)): not cytotoxic
